Results taken from US8642656B2, “Calixarene-based peptide conformation mimetics, methods of use, and methods of making” (priority 2004, dated 2014).
“Also recorded” adds a separate entry of the source. Like-named read-outs stand apart in the source and are kept apart here.

Legend:
[1] = test system: LPS from E. coli serotype 0111:B4; assay: LPS neutralization assay (Limulus amoebocyte lysate, QCL-1000); assay type: biochemical; details: read-out: IC50 values (μM) for LPS binding, E. coli 0111:B4
Method in brief: (§1)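 Compounds were tested for inhibition of LPS-triggered activation of the Limulus amoebocyte lysate proenzyme, which cleaves a chromogenic substrate to release p-nitroaniline read at 405-410 nm. Each LPS was used at 0.04 units. IC50 came from sigmoidal dose-response fits.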

[2] = test system: LPS from E. coli serotype 055:B5; assay: as above; assay type: biochemical
Method in brief: (§2)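 Absorbance at 405-410 nm tracks pNA released from a synthetic substrate by LPS-activated lysate enzyme. Compounds were titrated against 0.04 units of each LPS. IC50 values derive from sigmoidal curve fitting.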

[3] = test system: LPS from P. aeruginosa; assay: as above; assay type: biochemical, Pseudomonas aeruginosa; details: read-out: IC50 values (μM) for LPS binding, P.a.
Method in brief: as §1

[4] = test system: LPS from K. pneumoniae; assay: as above; assay type: biochemical, Klebsiella pneumoniae; details: read-out: IC50 values (μM) for LPS binding, Klebsiella
Method in brief: as §2

[5] = test system: LPS from S. typhimurium; assay: as above; assay type: biochemical, Salmonella typhimurium; details: read-out: IC50 values (μM) for LPS binding, Salmonella
Method in brief: as §1

[6] = test system: LPS from S. marcascens; assay: as above; assay type: biochemical, Serratia marcascens; details: read-out: IC50 values (μM) for LPS binding, Serratia
Method in brief: as §1

[7] = test system: LPS from six species of bacteria; assay: LPS neutralization assay, overall statements; assay type: biochemical; details: library of 23 compounds
From the text: The ability of compounds to neutralize endotoxin was detected in vitro by using the chromogenic QCL-1000 kit from BioWhittaker, Inc. (Walkersville, Md.), and as described in their protocol. This Limulus amoebocyte lysate (LAL) assay is quantitative for Gram negative bacterial endotoxin (lipopolysaccharide, LPS). In this assay compounds that are active inhibit the LPS-mediated activation of a proenzyme whose active form would release p-nitroaniline (pNA) from a colorless synthetic substrate producing a yellow color (pNA) whose absorption is monitored spectrophotometrically at 405-410 nm. The initial rate of enzyme activation is proportional to the concentration of endotoxin present.
Variants of LPS from six Gram negative bacteria were used: E. coli serotypes 0111:B4 (Combrex, Walkersville, Md.) and 055:B5 (Sigma, St. Louis, Mo.); Klebsiella pneumoniae (List Biologies, San Jose, Calif.); Pseudomonas aeruginosa (List Biologies, San Jose, Calif.); Salmonella typhimurium (List Biologies, San Jose, Calif.), and Serratia marcascens (List Biologies, San Jose, Calif.). The concentration of compound required to neutralize a given LPS and therefore to inhibit the Limulus amoebocyte lysate driven by 0.04 units of any given LPS was determined by dose response curves fit by using a standard sigmoidal function to determined the JC50 value for each lopomimetic compound. […]

[8] = test system: LPS from E. coli 055:B5; assay: Endotoxemia study in mice, lethal dose of E. coli 055:B5 LPS; assay type: in vivo; details: E. coli 055:B5 LPS 600 μg; 5 mg/kg
Protocol: In three separate studies, these compounds were tested against LPS derived from E. coli serotype 0111:B4, E. coli serotype 055:B5 LPS, and Salmonella. The compounds (in a final concentration of 2% DMSO v/v), were first mixed individually with LPS, and incubated for 30 minutes prior to i.p. injection into C57/BL6 mice (n=4-8/group). The control mice were treated with DMSO (2% v/v) alone. Each mouse received a lethal dose of LPS, with or without one of the compounds.
(§3) J Bacteriol 93, 1463-4 (1967)). Mice were provided food and water as usual ad libitum, and monitored for several days. When it was observed that mice were in distress and death was imminent, animals were sacrificed; in some cases, mice expired during the night and were found dead the following morning. Data are plotted as the number of surviving mice versus lime in hours. Statistical analysis was performed on the average amount of survival time per group with a maximum or 120 hours (surviving mice) by using the Student's t-test.

[9] = Acute toxicity observed in the endotoxemia model; assay type: in vivo, mice; details: i.p., single dose of 50 mg/kg, together with LPS
Protocol: as §3, with “C57 male black mice were injected i.p. with a solution that contained a lethal dose of LPS [600 μg of LPS from E. coli 055:B5 and Salmonella, and 500 μg of LPS from […]] and 1.25 mg of the lopomimetic compound (a dose of 50 mg/kg) (Rifkind, D. J” for “J”

## 5,11,17,23-Tetra-tert-butyl-25,26,27,28-tetrakis(4-guanidinobutoxy) calix[4]arene trifloroacetic acid salt [Compound 42]
[1]; Table 2
  IC50: 0.7 µM
[1]; Table 3, errors estimated ±30%
  IC50: 0.7 µM
[2]; Table 2, read-out: IC50 values (μM) for LPS binding, E. coli 055:B4
  IC50: 0.04 µM
[2]; Table 3, errors estimated ±30%, read-out: IC50 values (μM) for LPS binding, E. coli 055:B5
  IC50: 0.04 µM
[3]; Table 2
  IC50: 1.5 µM
[3]; Table 3, errors estimated ±30%
  IC50: 1.5 µM
[4]; Table 2
  IC50: 1 µM
[4]; Table 3, errors estimated ±30%
  IC50: 1 µM
[5]; Table 2
  IC50: 0.6 µM
[5]; Table 3, errors estimated ±30%
  IC50: 0.6 µM
[6]; Table 2
  IC50: > 5 µM
[6]; Table 3, errors estimated ±30%
  IC50: > 5 µM
[7]
  neutralizing LPS, ranking in words: best LPS neutralizing compounds; also recorded: most effective for neutralizing LPS
[8]
  survival of LPS-challenged mice: ineffective
[9]
  sign of acute toxicity: did not demonstrate any sign of acute toxicity
